Source: patent publication US20070238700A1, “N-PHENYL-1,1,1-TRIFLUOROMETHANESULFONAMIDE HYDRAZONE DERIVATIVE COMPOUNDS AND THEIR USAGE IN CONTROLLING PARASITES” (priority 2006, published 2007)
Like-named read-outs stand apart in the source and are kept apart here.

System: Ctenocephalides felis
Description: b) Ctenocephalides felis Adulticide Assay: C. felis Single Dose Screen
Mortality of fleas was the primary endpoint in the assay. Fleas were considered dead if they didn't move or were on their sides and unable to walk or right themselves. […] The concentration chosen (1.26 μg/cm^2) was higher than that known to kill 90% of cat fleas (LC90) using the reference compound, permethrin.
The test species was the cat flea (Ctenocephalides felis). The strain used was obtained from external suppliers as pupae and held in the laboratory under testing conditions until the adults had emerged. Fifteen (15) fleas were used in a minimum of four replicates against a single concentration level (approximately 60 fleas). The insects were selected to be in the adult life stage, aged between 3 and 7 days post emergence.
The compounds to be tested were supplied as solids and were prepared in acetone as described below prior to testing. Samples were stored in a refrigerator (5±1° C.) unless otherwise specified.
During the mortality testing, the temperature was maintained at 25±1° C. Humidity was maintained at 75±5%. The base (area=159 mm^2) of a 100 mL glass Erlenmeyer (conical) flask provided the treatment surface. Flasks were pretreated with Coatasil™ glass treatment to maximise bio-availability of test compounds by preventing them from binding to glass the surface. The base of the 100 mL Erlenmeyer flask was treated with 0.5 mL of test sample in acetone and gently swirled. This volume was sufficient to cover the base of the flask. Flasks were left to dry for 24 hours before flea exposure.
Adult cat fleas were placed into a sorting chamber, which allowed fleas to jump into the Erlenmeyer flasks. Fifteen (15) adult cat fleas were collected in each flask. The top of the flasks were then covered in Parafilm™ and small holes were made to allow gas exchange. A 0.5 mL volume of acetone as a solvent control was applied to the base of an Erlenmeyer flask and the testing proceeded in the same manner described above. Cat fleas in the treatment containers were held under testing conditions for 8, 24 and/or 48 hours. Mortality was recorded at 8, 24, 8 and 24, or 24 and 48 hours Pooled 8, 24, 8 and 24, and 24 and 48 hour mortality data were converted to percentages and are summarized by Table 21, below.

| SMILES | C. felis Mortality (%) 8 h (8 h, data from laboratory 1) | C. felis Mortality (%) 24 h (24 h, data from laboratory 1) | C. felis Mortality (%) 8 h | C. felis Mortality (%) 24 h |
| --- | --- | --- | --- | --- |
| CC(=NN(C)c1ccccc1)c1cc(Cl)ccc1N(COC(=O)C(C)(C)C)S(=O)(=O)C(F)(F)F [Compound 111] | 14% | 32% |  |  |
| CC(=NN(C)C)c1cc(Cl)ccc1NS(=O)(=O)C(F)(F)F [Compound 113] | 3% | 66% |  |  |
| CC(=NN(C)c1ccccc1)c1ccccc1NS(=O)(=O)C(F)(F)F [Compound 114, N-[2-[1-(N′-methyl-N′-phenyl)hydrazono]ethyl-phenyl]-trifluoromethanesulfonamide] |  |  | 56% | 86% |
| CC(=NN(C)c1ccccc1)c1cccc(Cl)c1NS(=O)(=O)C(F)(F)F [Compound 115] | 10% | 63% |  |  |
| CN(N=C(c1cc(Cl)ccc1NS(=O)(=O)C(F)(F)F)C1CCCCC1)c1ccccc1 [Compound 119] | 7% | 14% |  |  |
| O=S(=O)(Nc1ccc(Cl)cc1C(=NNc1ccc(Cl)cc1)c1ccccc1)C(F)(F)F [Compound 121] | 12% | 41% |  |  |
| CC(=NNc1ccc(Cl)cc1)c1ccccc1NS(=O)(=O)C(F)(F)F [Compound 122] | 23% | 26% |  |  |
| CN(C)N=C(c1ccccc1)c1cc(Cl)ccc1NS(=O)(=O)C(F)(F)F [Compound 123, N-[2-[1-dimethylhydrazono-1-phenyl]methyl-4-chlorophenyl]-trifluoromethanesulfonamide] |  |  | 9% | 45% |
| CCC(=NN1CCCC1)c1cc(Cl)ccc1NS(=O)(=O)C(F)(F)F [Compound 128] | 12% | 36% |  |  |
| C#CCN(c1ccc(Cl)cc1C(C)=NN1CCCCC1)S(=O)(=O)C(F)(F)F [Compound 133, N-[2-[1-(1-piperidyl)imino]ethyl-4-chlorophenyl]-N-propargyltrifluoromethanesulfonamide] |  |  | 5% | 66% |
| CC(=NN1CCCCC1)c1cc(Cl)ccc1N(C)S(=O)(=O)C(F)(F)F [Compound 134] | 7% | 14% |  |  |
| CCN(c1ccc(Cl)cc1C(C)=NN1CCCCC1)S(=O)(=O)C(F)(F)F [Compound 135, N-[2-[1-(1-piperidyl)imino]ethyl-4-chlorophenyl]-N-ethyl-trifluoromethanesulfonamide] |  |  | 8% | 41% |
| CC(C)=CCN(c1ccc(Cl)cc1C(C)=NN(C)c1ccccc1)S(=O)(=O)C(F)(F)F [Compound 136] | 7% | 13% |  |  |
| C#CCN(c1ccc(Cl)cc1C(C)=NN(C)c1ccccc1)S(=O)(=O)C(F)(F)F [Compound 137] | 6% | 19% |  |  |
| CC(=NN(C)C(=O)c1ccccc1)c1cc(Cl)ccc1NS(=O)(=O)C(F)(F)F [Compound 138] | 20% | 66% |  |  |
| CC(=NN(C)c1cc(Cl)ccc1Cl)c1cc(Cl)ccc1NS(=O)(=O)C(F)(F)F [Compound 141] | 13% | 75% |  |  |
| CCN(N=C(C)c1cc(Cl)ccc1NS(=O)(=O)C(F)(F)F)c1cc(Cl)ccc1Cl [Compound 142] | 12% | 46% |  |  |
| CCCN(N=C(C)c1cc(Cl)ccc1NS(=O)(=O)C(F)(F)F)c1cc(Cl)ccc1Cl [Compound 143] | 13% | 53% |  |  |
| CC(=NN(c1cc(Cl)ccc1Cl)C(C)C)c1cc(Cl)ccc1NS(=O)(=O)C(F)(F)F [Compound 144] | 7% | 42% |  |  |
| CCOCN(c1ccc(Cl)cc1C(C)=NN1CCCCC1)S(=O)(=O)C(F)(F)F [Compound 145] | 8% | 35% |  |  |
| COCN(c1ccc(Cl)cc1C(C)=NN1CCCCC1)S(=O)(=O)C(F)(F)F [Compound 146] | 12% | 24% |  |  |

| SMILES | C. felis Mortality (%) 8 h (8 h, data from laboratory 1) | C. felis Mortality (%) 24 h (24 h, data from laboratory 1) | C. felis Mortality (%) 8 h | C. felis Mortality (%) 24 h |
| --- | --- | --- | --- | --- |
| CC(=NNc1ccc(C)cc1)c1cc(Cl)ccc1NS(=O)(=O)C(F)(F)F [Compound 155] | 7% | 28% |  |  |
| CCOC(=O)N(CCC(C)C)N=C(C)c1cc(Cl)ccc1NS(=O)(=O)C(F)(F)F [Compound 158] |  |  | 5% | 28% |
| CC(=NN1CCCCC1)c1cccc(NS(=O)(=O)C(F)(F)F)c1 [Compound 161] | 7% | 16% |  |  |
| CC(=NN(C)c1ccccc1)c1cc(NS(=O)(=O)C(F)(F)F)ccc1Cl [Compound 162] | 8% | 58% |  |  |
| CC(=NN(C)c1ccccc1)c1cccc(NS(=O)(=O)C(F)(F)F)c1 [Compound 163, N-[3-[1-(N′-methyl-N′-phenyl)hydrazono]ethylphenyl]-trifluoromethanesulfonamide] |  |  | 8% | 18% |
| CC(=NN(C)c1ccccc1)c1ccc(NS(=O)(=O)C(F)(F)F)cc1 [Compound 164] | 8% | 72% |  |  |
| CC(=NNc1ccc(Cl)cc1)c1ccc(NS(=O)(=O)C(F)(F)F)cc1 [Compound 165] | 6% | 7% |  |  |
| CC(=NN1CCCCC1)c1ccc(NS(=O)(=O)C(F)(F)F)cc1 [Compound 167] | 2% | 5% |  |  |
| C=CCN(N=C(C)c1cc(Cl)ccc1N(CC=C)S(=O)(=O)C(F)(F)F)c1ccc(Cl)cc1 [Compound 170] | 2% | 24% |  |  |
| C=CCN(N=C(C)c1cc(Cl)ccc1NS(=O)(=O)C(F)(F)F)c1ccc(Cl)cc1 [Compound 171] | 7% | 54% |  |  |
| CC(=NN(C)c1ccccc1)c1cc2c(cc1NS(=O)(=O)C(F)(F)F)OCO2 [Compound 172] | 5% | 31% |  |  |
| C=CCN(N=C(C)c1cc(Cl)ccc1NS(=O)(=O)C(F)(F)F)c1ccccc1 [Compound 173] | 17% | 59% |  |  |
| CC(=NNS(=O)(=O)c1ccc(C)cc1)c1cc(Cl)ccc1NS(=O)(=O)C(F)(F)F [Compound 174] | 5% | 27% |  |  |
| C#CCN(N=C(C)c1cc(Cl)ccc1NS(=O)(=O)C(F)(F)F)c1ccccc1 [Compound 175] | 5% | 38% |  |  |
| CC(=NN1CCCCC1)c1ccccc1NS(=O)(=O)C(F)(F)F [Compound 176] | 7% | 31% |  |  |
| CC(=NN1CCCCC1)c1ccc(C(F)(F)F)cc1NS(=O)(=O)C(F)(F)F [Compound 177] | 3% | 22% |  |  |
| CC(=NNc1ccc(F)cc1)c1ccccc1NS(=O)(=O)C(F)(F)F [Compound 178] | 4% | 29% |  |  |
| CC(=NNc1ccc(Cl)cc1)c1ccc(C(F)(F)F)cc1NS(=O)(=O)C(F)(F)F [Compound 179] | 3% | 25% |  |  |
| CC(=NNc1ccc(F)cc1)c1ccc(C(F)(F)F)cc1NS(=O)(=O)C(F)(F)F [Compound 180] | 0% | 16% |  |  |
| CC(=NN1CCCCC1)c1cc2c(cc1NS(=O)(=O)C(F)(F)F)OCO2 [Compound 181] | 7% | 16% |  |  |
| CCN(N=C(C)c1ccccc1NS(=O)(=O)C(F)(F)F)c1ccc(Cl)cc1 [Compound 182] | 5% | 29% |  |  |
